Measurements from patent publication US20230129364A1, “PYRROLIDINE DERIVATIVE, AND PHARMACEUTICAL COMPOSITION FOR PREVENTING OR TREATING BETA-AMYLOID OR TAU PROTEIN-ASSOCIATED DISEASES CONTAINING SAME” (YONSEI UNIVERSITY, UNIVERSITY - INDUSTRY FOUNDATION (UIF), priority 2019, published 2023).

Key:
P-Tau AT8 (S202, T205) = biological target: T1, P-Tau AT8 (S202, T205) (Homo sapiens, UniProt P10636, P618L); assay: Phosphorylated tau degradation in HEK293T P301L mutant cell line, Western blot, P-Tau AT8; assay type: cell-based; conditions: 72 hours, HEK293T P301L cells, Western blot quantified with Image J
T1 construct: host or cells: HEK293T
Text: (§1) Specifically, the pRK5-EGFP-Tau P301L vector from Addgene (Addgene, MA, USA) was purchased and used in order to stably express P301L, which is a known representative mutation of pathological tau, in HEK293T cells. The P301L vector was inserted into HEK293T cells using a FuGENE HD transfection reagent (Promega, WI, USA) and then stabilized. The cells were removed therefrom and then only the cells into which the vector was inserted were isolated using a fluorescence-activated cell sorter (BD FACS Aria III, BD Bioscience, NJ, USA). After the isolated cells were incubated for 2 to 3 days, they were removed again and separated and cultured using a FACS twice to finally obtain a HEK293T P301 mutant cell line.
(§2) The obtained cells were seeded in each well of a 6-well plate and stabilized for 18 hours, and then each well was treated with the compound of Example 1 such that the final concentration reached 1 or 10 μM. The control group was treated with the same concentration (0.01%) of DMSO used as the solvent of the compound of Example. 72 hours later, the protein was extracted with a lysis buffer and quantified, and then Western blot was performed. A protein sample was electrophoresed on a 4-20% mini-PROTEIN TGX precast protein gel (Bio-Rad, CA, USA) and transferred to a PVDF membrane (Immobilon-P, Merck, Darmstadt, Germany). The primary antibodies used herein were P-Tau AT8 (#MN1020), P-Tau S396 (#44-752G), and P-Tau S356 (#44-751G) from ThermoFisher scientific (MA, USA), and GAPDH (SC-47724) from SANTA CRUZ Biotechnology (TX, USA). The secondary antibody used herein was rabbit/mouse IgG from GeneTex (CA, USA). The image obtained through ImageQuant LAS 4000 (GE healthcare, IL, USA) and the result of quantification using an Image J program are shown in FIG. 1.

P-Tau (S396) = biological target: T2, P-Tau (S396) (Homo sapiens, UniProt P10636, P618L); assay: Phosphorylated tau degradation in HEK293T P301L mutant cell line, Western blot, P-Tau S396; assay type: cell-based; conditions: 72 hours, HEK293T P301L cells, Western blot quantified with Image J
T2 construct: host or cells: HEK293T
Text: as §1, §2

P-Tau (S356) = biological target: T3, P-Tau (S356) (Homo sapiens, UniProt P10636, P618L); assay: Phosphorylated tau degradation in HEK293T P301L mutant cell line, Western blot, P-Tau S356; assay type: cell-based; conditions: 72 hours, HEK293T P301L cells, Western blot quantified with Image J
T3 construct: host or cells: HEK293T
Text: as §1, §2

[1] = biological target: T4, non-pathological (WT) tau (Homo sapiens, UniProt P10636); assay: SPR binding affinity of tau PROTAC to WT tau; conditions: CM5 sensor chip, concentration-dependent kinetic assay, nonpathological WT tau, read-out: binding affinity (Ka) to tau
T4 construct: made in house; host or cells: Star pLysS cells (E. coli), pRSET-B vector, IPTG induction
Experimental: (§3) The following experiment was performed to verify that the compound according to the present invention selectively degrades only phosphorylated tau. In order to biophysically analyze selective binding of the tau PROTAC to P301S, which is known as a representative mutant of pathological tau, non-pathological (WT) tau and pathological (P301S) tau were cloned into pRSET-B vectors to obtain plasmids. Star pLysS cells were used to overexpress proteins and 1 mM IPTG was added to the medium at an OD600 of 0.4 to 0.6. The intracellular proteins were extracted from the cells lysed in a lysis buffer through heat shock (95° C.), and WT tau and P301S tau were obtained at a high purity (>95%) using cation exchange chromatography and size exclusion chromatography.
(§4) Whether or not the obtained proteins bound to the tau PROTAC was determined through an SPR experiment. A CM5 sensor chip including dextran attached thereto was used, tau PROTAC was allowed to flow and the binding affinity between the protein and the compound was determined based on a response unit (RU). The binding affinity (Ka) to the protein was measured using concentration-dependent kinetic assay. The results of measurement of binding affinity between the tau PROTAC compound and non-pathological WT Tau or pathological P301S tau are shown in FIG. 2. […]

pathological (P301S) tau = biological target: T5, pathological (P301S) tau (Homo sapiens, UniProt P10636, P618S); assay: SPR binding affinity of tau PROTAC to P301S tau; conditions: CM5 sensor chip, concentration-dependent kinetic assay, read-out: binding affinity (Ka) to the P301S tau
T5 construct: made in house; host or cells: Star pLysS cells (E. coli), pRSET-B vector, IPTG induction
Experimental: as §3, §4

T3 sequence (P10636 1-383 isoform P10636-6 P243L): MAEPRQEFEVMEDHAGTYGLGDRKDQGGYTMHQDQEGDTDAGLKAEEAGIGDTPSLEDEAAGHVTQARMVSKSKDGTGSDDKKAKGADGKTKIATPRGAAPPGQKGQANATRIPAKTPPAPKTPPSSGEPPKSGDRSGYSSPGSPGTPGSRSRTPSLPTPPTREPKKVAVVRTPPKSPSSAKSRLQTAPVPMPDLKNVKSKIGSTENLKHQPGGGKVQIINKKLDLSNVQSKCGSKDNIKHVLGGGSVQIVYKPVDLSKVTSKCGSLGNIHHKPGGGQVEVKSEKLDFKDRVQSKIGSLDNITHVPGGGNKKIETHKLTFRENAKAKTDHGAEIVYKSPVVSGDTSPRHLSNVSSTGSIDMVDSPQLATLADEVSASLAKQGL
T2 sequence (P10636 1-383 isoform P10636-6 P243L): as above
T1 sequence (P10636 1-383 isoform P10636-6 P243L): as above
T5 sequence (P10636 1-441 isoform P10636-8 P301S): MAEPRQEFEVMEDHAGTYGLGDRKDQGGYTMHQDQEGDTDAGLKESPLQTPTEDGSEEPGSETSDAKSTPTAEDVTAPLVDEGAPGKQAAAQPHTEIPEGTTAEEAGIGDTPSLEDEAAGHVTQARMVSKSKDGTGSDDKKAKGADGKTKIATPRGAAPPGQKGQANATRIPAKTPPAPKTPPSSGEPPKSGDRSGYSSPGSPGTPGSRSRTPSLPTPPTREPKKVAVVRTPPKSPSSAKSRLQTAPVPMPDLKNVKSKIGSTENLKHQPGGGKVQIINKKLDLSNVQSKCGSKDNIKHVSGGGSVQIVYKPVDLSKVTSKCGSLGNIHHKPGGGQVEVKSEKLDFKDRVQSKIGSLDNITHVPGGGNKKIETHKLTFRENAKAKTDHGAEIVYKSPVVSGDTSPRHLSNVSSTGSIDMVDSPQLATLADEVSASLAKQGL
T4 sequence (P10636 1-441 isoform P10636-8): as the sequence (P10636 1-441 isoform P10636-8 P301S) above, with S301P counted along it

SMILES: CCN1C(=O)/C(=C/c2cn(Cc3cn(CCOCCOCCOCC(=O)Nc4cccc5c4C(=O)N(C4CCC(=O)NC4=O)C5=O)nn3)c3cccnc23)NC1=S (stereo not shown) [TAU-1 PROTAC, (Z)—N-(2-(2,6-dioxopiperidin-3-yl)-1,3-dioxoisoindolin-4-yl)-2-(2-(2-(2-(4-((3-((1-ethyl-5-oxo-2-thioxoimidazolidin-4-ylidene)methyl)-1H-pyrrolo[3,2-b]pyridin-1-yl)methyl)-1H-1,2,3-triazol-1-yl)ethoxy)ethoxy)ethoxy)acetamide]
- degradation activity compared to the control group, P-Tau AT8 (S202, T205) (P-Tau AT8 (S202, T205); 10 μM): 26%
- degradation activity, P-Tau (S396) (P-Tau (S396); 1 μM): 67%
- degradation activity, P-Tau (S396) (P-Tau (S396); 10 μM): 67%
- phosphorylated tau degradation activity, P-Tau (S356) (P-Tau (S356); 10 μM): 81%
- Kd [1]: 190 µM
- Kd (pathological (P301S) tau): 42 µM

SMILES: CCN1C(=O)/C(=C/c2cn(Cc3cn(CCOCCOCC(=O)Nc4cccc5c4C(=O)N(C4CCC(=O)NC4=O)C5=O)nn3)c3ccccc23)NC1=S (stereo not shown) [TAU-2 PROTAC, (Z)—N-(2-(2,6-dioxopiperidin-3-yl)-1,3-dioxoisoindolin-4-yl)-2-(2-(2-(4-((3-((1-ethyl-5-oxo-2-thioxoimidazolidin-4-ylidene)methyl)-1H-indol-1-yl)methyl)-1H-1,2,3-triazol-1-yl)ethoxy)ethoxy)acetamide]
- degradation activity compared to the control group, P-Tau AT8 (S202, T205) (P-Tau AT8 (S202, T205); 1 μM): 59%
- degradation activity compared to the control group, P-Tau AT8 (S202, T205) (P-Tau AT8 (S202, T205); 10 μM): 53%
- degradation activity, P-Tau (S396) (P-Tau (S396); 1 μM): 30%
- phosphorylated tau degradation activity, P-Tau (S356) (P-Tau (S356); 1 μM): 62%
- phosphorylated tau degradation activity, P-Tau (S356) (P-Tau (S356); 10 μM): 80%
- Kd [1]: 199 µM
- Kd (pathological (P301S) tau): 18.7 µM
